Reference: patent US20250368648A1, “MULTI-CYCLIC IRAK AND FLT3 INHIBITING COMPOUNDS AND USES THEREOF” (CHILDREN'S HOSPITAL MEDICAL CENTER, priority 2022, published 2025)

Tests used:
[1] = tested on: MOLM14 (D835Y) cells; experiment: Combination drug screening, Cell Titer Glo, MOLM14 (D835Y) cells; details: MOLM14(D835Y) cells; for Excess HSA Score: sum score, listed as compound in combination with Compound 106, 48 hours;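 as to all read-outs here: MOLM14 cells with FLT3 ITD plus D835Y, 500 per well in 1536-well plates, 10-point dose ranges, luminescent viability after 48 h, negative Excess HSA indicates synergy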
Method: Briefly, 10 nL of the compound shown below was acoustically dispensed into 1536-well white polystyrene tissue culture-treated plates with an Echo 550 acoustic liquid handler (Labcyte). Cells were then added to compound-containing plate at a density of 500-cells/well in 5 μL of medium. A 6-point or 10-point custom concentration range was used for all listed drugs. Plates were incubated for 48 hours at standard incubator conditions covered by a stainless steel gasketed lid to prevent evaporation. 48h post compound addition, 3 μL of Cell Titer Glo (Promega) were added to each well and plates were incubated at room temperature for 15 minutes with the stainless-steel lid in place. Luminescence readings were taken using a Viewlux imager (PerkinElmer) with a 2 second exposure time per plate.
A smaller concentration indicates higher potency to synergize with Venetoclax.
A smaller concentration indicates higher potency to synergize with azacitidine.
(§1) This is a cell line that has the FLT3 ITD mutation but also the FLT3 D835Y kinase domain mutation. […] Excess HSA is a measure of synergy vs. additivity or antagonism, wherein a negative Excess HSA value is indicative of synergy.

[2] = tested on: THP1 cells; experiment: Combination drug screening, Cell Titer Glo, THP1 cells; details: THP1 cells; for Excess HSA Score: sum score, 10 × 10 dataset, 48 hours;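 as to all read-outs here: luminescence read out in 1536-well plates seeded with 500 THP1 cells per well, each drug spanning a 10-point concentration range in the combination matrix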
From the text: A smaller concentration indicates higher potency to synergize with Venetoclax. […] The numbers in each cell represent the % response (left) or the Delta Bliss score (right) at each given concentration combination.
A smaller concentration indicates higher potency to synergize with azacitidine. […] The numbers in each cell represent the % response (left) or the Delta Bliss score (right) at each given concentration combination.
as §1
Briefly, 10 nL of compounds were acoustically dispensed into 1536-well white polystyrene tissue culture-treated plates with an Echo 550 acoustic liquid handler (Labcyte). MOLM14 (D835Y) or THP1 cells were then added to compound-containing plates at a density of 500-cells/well in 5 μL of medium. A 10-point custom concentration range was used for all listed drugs. […] 48h post compound addition, 3 μL of Cell Titer Glo (Promega) were added to each well and plates were incubated at room temperature for 15 minutes with the stainless-steel lid in place. Luminescence readings were taken using a Viewlux imager (PerkinElmer) with a 2 second exposure time per plate.

[3] = combination therapy of CG-806 (a FLT3/BTK inhibitor) and the named additional compound, 110 × 10 dataset
[4] = combination therapy of Compound 45a and the named additional compound, 110 × 10 dataset
[5] = combination therapy of Compound 46a and the named additional compound, 110 × 10 dataset
[6] = combination therapy of Compound 47a and the named additional compound, 110 × 10 dataset
[7] = combination therapy of Compound 48a and the named additional compound, 110 × 10 dataset
[8] = combination therapy of Compound 102 and the named additional compound, 10 × 10 dataset
[9] = combination therapy of Gilteritinib (a FLT3/AXL inhibitor) and the named additional compound, 110 × 10 dataset
[10] = combination therapy of PF-06650833 (an IRAK4 selective inhibitor) and the named additional compound, 110 × 10 dataset
[11] = combination therapy of Quizartinib (a FLT3/Kit/PDGFRa inhibitor) and the named additional compound, 110 × 10 dataset
[12] = combination therapy of emavusertib (CA-4948) (a FLT3/IRAK4 inhibitor) and the named additional compound, 110 × 10 dataset
[13] = listed as compound in combination with CG-806 (a FLT3/BTK inhibitor)
[14] = listed as compound in combination with Compound 45a
[15] = listed as compound in combination with Compound 46a
[16] = listed as compound in combination with Compound 47a
[17] = listed as compound in combination with Compound 48a
[18] = listed as compound in combination with Compound 102
[19] = listed as compound in combination with Compound 106
[20] = listed as compound in combination with Gilteritinib (a FLT3/AXL inhibitor)
[21] = listed as compound in combination with PF-06650833 (an IRAK4 selective inhibitor)
[22] = listed as compound in combination with Quizartinib (a FLT3/Kit/PDGFRa inhibitor)
[23] = listed as compound in combination with emavusertib (CA-4948) (a FLT3/IRAK4 inhibitor)

For `Nc1cccc2c1CN(C1CCC(=O)NC1=O)C2=O` (stereo not drawn) [Lenalidomide], which “Sum Excess HSA Score” value [1, 3] is on record?
Its value is 141.5.

What about the “Sum Excess HSA Score” value [1, 4] of the same compound?
Its value is 784.7.

What about the “Sum Excess HSA Score” value [1, 5] of the same compound?
The value was 12.1.

And the “Sum Excess HSA Score” value [1, 6]?
Its value is 868.6.

What about the “Sum Excess HSA Score” value [1, 7] of the same compound?
Its value is 405.4.

What about the “Sum Excess HSA Score” value [1, 8] of the same compound?
The value was 59.07.

And the “Sum Excess HSA Score” value [1, 9]?
Its value is 527.6728.

And the “Sum Excess HSA Score” value [1, 10]?
The value was −429.8.

And the “Sum Excess HSA Score” value [1, 11]?
The value was 565.7343.

And the “Sum Excess HSA Score” value [1, 12]?
Its value is 390.3.

And the “Excess HSA Score” value ([1]; 10 × 10 dataset)?
The value was 754.6.

And the “Excess HSA Score” value [2, 13]?
Its value is 534.

And the “Excess HSA Score” value [2, 14]?
The value was −245.1.

And the “Excess HSA Score” value [2, 15]?
Its value is 533.2.

What about the “Excess HSA Score” value [2, 16] of the same compound?
Its value is 188.9.

And the “Excess HSA Score” value [2, 17]?
Its value is −51.13.

And the “Excess HSA Score” value [2, 18]?
The value was 12.2.

And the “Excess HSA Score” value [2, 19]?
The value was 386.8.

What about the “Excess HSA Score” value [2, 20] of the same compound?
The value was 355.

What about the “Excess HSA Score” value [2, 21] of the same compound?
Its value is 74.4868.

What about the “Excess HSA Score” value [2, 22] of the same compound?
The value was 472.5204.

What about the “Excess HSA Score” value [2, 23] of the same compound?
Its value is 1167.

Which “Sum Excess HSA Score” value [1, 3] does the source give for `C[C@@H]1OCC2(CCN(c3cnc(Sc4ccnc(N)c4Cl)c(N)n3)CC2)[C@@H]1N` [TNO-155] here?
Its value is −753.6.

And the “Sum Excess HSA Score” value [1, 4]?
The value was −1028.

What about the “Sum Excess HSA Score” value [1, 5] of the same compound?
Its value is −1041.6332.

And the “Sum Excess HSA Score” value [1, 6]?
The value was −1163.

What about the “Sum Excess HSA Score” value [1, 7] of the same compound?
The value was −1024.

What about the “Sum Excess HSA Score” value [1, 8] of the same compound?
Its value is −510.7.

What about the “Sum Excess HSA Score” value [1, 9] of the same compound?
The value was −895.7.

And the “Sum Excess HSA Score” value [1, 10]?
Its value is −773.7.

What about the “Sum Excess HSA Score” value [1, 11] of the same compound?
The value was −1091.

What about the “Sum Excess HSA Score” value [1, 12] of the same compound?
The value was −470.2.

And the “Excess HSA Score” value ([1]; 10 × 10 dataset)?
Its value is −943.9.

What about the “Excess HSA Score” value [2, 13] of the same compound?
Its value is −198.4.

What about the “Excess HSA Score” value [2, 14] of the same compound?
The value was 64.74.

What about the “Excess HSA Score” value [2, 15] of the same compound?
The value was 591.7.

And the “Excess HSA Score” value [2, 16]?
Its value is 207.

What about the “Excess HSA Score” value [2, 17] of the same compound?
The value was −3.87.

What about the “Excess HSA Score” value [2, 18] of the same compound?
The value was 485.0784.

What about the “Excess HSA Score” value [2, 19] of the same compound?
The value was −22.86.

What about the “Excess HSA Score” value [2, 20] of the same compound?
The value was 394.2.

And the “Excess HSA Score” value [2, 21]?
Its value is −194.1.

What about the “Excess HSA Score” value [2, 22] of the same compound?
The value was 587.7.

And the “Excess HSA Score” value [2, 23]?
The value was 527.1.

`CCN(C(=O)c1cc(F)ccc1Oc1cncnc1N1CC2(CCN(C[C@H]3CC[C@H](NS(=O)(=O)CC)CC3)CC2)C1)C(C)C` [SNDX-5613] was tested. Which “Sum Excess HSA Score” value [1, 3] did it give?
Its value is −1.886.

What about the “Sum Excess HSA Score” value [1, 4] of the same compound?
The value was −24.88.

And the “Sum Excess HSA Score” value [1, 5]?
The value was −263.9.

What about the “Sum Excess HSA Score” value [1, 6] of the same compound?
The value was −358.8.

And the “Sum Excess HSA Score” value [1, 7]?
Its value is −804.1.

What about the “Sum Excess HSA Score” value [1, 8] of the same compound?
The value was −748.9985.

And the “Sum Excess HSA Score” value [1, 9]?
Its value is 47.75.

And the “Sum Excess HSA Score” value [1, 10]?
The value was −301.3.

And the “Sum Excess HSA Score” value [1, 11]?
The value was −724.1.

What about the “Sum Excess HSA Score” value [1, 12] of the same compound?
The value was −321.

And the “Excess HSA Score” value ([1]; 10 × 10 dataset)?
The value was −210.8.

And the “Excess HSA Score” value [2, 13]?
The value was 321.1921.

And the “Excess HSA Score” value [2, 14]?
Its value is 434.8.

And the “Excess HSA Score” value [2, 15]?
The value was 262.8.

And the “Excess HSA Score” value [2, 16]?
The value was 247.1.

And the “Excess HSA Score” value [2, 17]?
The value was 138.2.

And the “Excess HSA Score” value [2, 18]?
The value was 156.4.

And the “Excess HSA Score” value [2, 19]?
Its value is 375.4.

And the “Excess HSA Score” value [2, 20]?
Its value is 306.1.

What about the “Excess HSA Score” value [2, 21] of the same compound?
The value was −120.

And the “Excess HSA Score” value [2, 22]?
Its value is 413.2.

And the “Excess HSA Score” value [2, 23]?
The value was 468.5.

How did the “Sum Excess HSA Score” value [1, 3] turn out when `CC1(C)CCC(CN2CCN(c3ccc(C(=O)NS(=O)(=O)c4ccc(NCC5CCOCC5)c([N+](=O)[O-])c4)c(Oc4cnc5[nH]ccc5c4)c3)CC2)=C(c2ccc(Cl)cc2)C1` [Venetoclax (ABT-199), Venetoclax] was run?
The value was −751.

What about the “Comments (synergistic / antagonistic)” value [1, 4] of the same compound?
Its value is “Synergistic (a negative Excess HSA value is indicative of synergy)”.

What about the “Sum Excess HSA Score” value [1, 4] of the same compound?
The value was −1552.

What about the “Comments (synergistic / antagonistic)” value [1, 5] of the same compound?
Its value is “Synergistic (a negative Excess HSA value is indicative of synergy)”.

What about the “Sum Excess HSA Score” value [1, 5] of the same compound?
Its value is −1667.

What about the “Comments (synergistic / antagonistic)” value [1, 6] of the same compound?
Its value is “Synergistic (a negative Excess HSA value is indicative of synergy)”.

And the “Sum Excess HSA Score” value [1, 6]?
The value was −1849.

And the “Comments (synergistic / antagonistic)” value [1, 7]?
The value was “Synergistic (a negative Excess HSA value is indicative of synergy)”.

What about the “Sum Excess HSA Score” value [1, 7] of the same compound?
Its value is −1280.6361.

What about the “Comments (synergistic / antagonistic)” value [1, 8] of the same compound?
Its value is “Synergistic (a negative Excess HSA value is indicative of synergy)”.

What about the “Sum Excess HSA Score” value [1, 8] of the same compound?
Its value is −966.5606.

And the “Comments (synergistic / antagonistic)” value [1, 9]?
The value was “Synergistic (a negative Excess HSA value is indicative of synergy)”.

And the “Sum Excess HSA Score” value [1, 9]?
The value was −1406.

And the “Comments (synergistic / antagonistic)” value [1, 10]?
Its value is “Synergistic (a negative Excess HSA value is indicative of synergy)”.

And the “Sum Excess HSA Score” value [1, 10]?
Its value is −1578.

And the “Comments (synergistic / antagonistic)” value [1, 11]?
The value was “Synergistic (a negative Excess HSA value is indicative of synergy)”.

And the “Sum Excess HSA Score” value [1, 11]?
The value was −1656.

And the “Comments (synergistic / antagonistic)” value [1, 12]?
Its value is “Synergistic (a negative Excess HSA value is indicative of synergy)”.

And the “Sum Excess HSA Score” value [1, 12]?
Its value is −1038.

What about the Comments ([1]; combination with Compound 106) of the same compound?
Its Comments is “Synergistic (a negative Excess HSA value is indicative of synergy)”.

What about the “Excess HSA Score” value ([1]; 10 × 10 dataset) of the same compound?
Its value is −1540.

And the Comments ([2]; combination with CG-806)?
The Comments was “Synergistic (a negative Excess HSA value is indicative of synergy)”.

And the Comments ([2]; combination with Compound 45a)?
The Comments was “Synergistic (a negative Excess HSA value is indicative of synergy)”.

What about the Comments ([2]; combination with Compound 46a) of the same compound?
The Comments was “Synergistic (a negative Excess HSA value is indicative of synergy)”.

And the Comments ([2]; combination with Compound 47a)?
The Comments was “Synergistic (a negative Excess HSA value is indicative of synergy)”.

And the Comments ([2]; combination with Compound 102)?
The Comments was “Synergistic (a negative Excess HSA value is indicative of synergy)”.

And the Comments ([2]; combination with Compound 106)?
The Comments was “Synergistic (a negative Excess HSA value is indicative of synergy)”.

What about the Comments ([2]; combination with Gilteritinib) of the same compound?
Its Comments is “Synergistic (a negative Excess HSA value is indicative of synergy)”.

And the “Excess HSA Score” value [2, 13]?
The value was −1431.1287.

And the “Excess HSA Score” value [2, 14]?
The value was −1070.

And the “Excess HSA Score” value [2, 15]?
The value was −1405.

What about the “Excess HSA Score” value [2, 16] of the same compound?
The value was −1419.

And the “Excess HSA Score” value [2, 17]?
Its value is −628.4379.

What about the “Excess HSA Score” value [2, 18] of the same compound?
The value was −1775.

What about the “Excess HSA Score” value [2, 19] of the same compound?
The value was −1478.

What about the “Excess HSA Score” value [2, 20] of the same compound?
Its value is −1448.

And the “Excess HSA Score” value [2, 21]?
The value was −429.3.

And the “Excess HSA Score” value [2, 22]?
Its value is −216.

And the “Excess HSA Score” value [2, 23]?
The value was −526.5.
